Test results as given in publication PMC10789292 (Journal of Alzheimer's Disease Reports, 2023).

System: cPLA2-IVA expressed in mouse brain
Assay: Peptide binding to brain slices by IHC
Conditions: for Binding (staining) to healthy NMRI and APP/PS1 mouse brain slices: biotinylated peptide 20 μM in HCN, overnight 4°C, DAB detection

Row | Sequence | Binding (staining) to healthy NMRI and APP/PS1 mouse brain slices | Staining of APP/PS1 versus healthy brain slices (biotinylated peptide 20 μM, 2 years old APP/PS1 mice)
1 | DDFRVWWPNFPR [PLP2] | good staining | –
2 | HVTLRYMHPMVS [PLP25] | good staining | higher staining of APP/PS1 brain slices
3 | YQFGYDYPRSQV [PLP1] | unable to bind the brain tissue | –
